For orientation: IC50 means the concentration that inhibits the measured activity by half.

The results in this text go back to patent US6344455B1 (Warner-Lambert Company, priority 1998, dated 2002).

Test [1] concerns heregulin-mediated tyrosine phosphorylation in MDA-MB-453 cells. The test is described as follows: Heregulin-dependent tyrosine phosphorylation assay, MDA-MB-453 cells, western blot. It counts as cell-based. The settings on record: Homo sapiens, 2 hours compound, 10 ng/mL heregulin 5 minutes, read-out: Heregulin-Medidated Tyrosine Phosphorylation IC50. The procedure:
Proteins in the lysate were separated by polyacrylamide gel electrophoresis and electrophoretically transferred to nitrocellulose. […] Band intensities were determined with a laser densitometer.
On the technique in general: In western blotting, separated proteins are transferred to a membrane and probed.

Test [2] relates to VEGF secretion from A431 cells. The note with it: for VEGF secretion: 48 hours.
In test [3] the test system is human epidermoid carcinoma, A431. In words: In vivo tumor inhibition assay, A431 tumor fragments s.c. in nude mice. The settings on record: for Tumor Growth Delay / Tumor Growth Inhibition: 15 consecutive days; for Tumor Growth Delay: isethionate salt in water, T-C to 750 mg; for Tumor Growth Inhibition: growth delay divided by number of treatments times 100%. The procedure: The human epidermoid carcinoma, A431, was propagated in vivo by serial transplantation. This tumor model was selected for these studies because of its known dependence upon the EGF receptor for growth and its early stage responsiveness to monoclonal antibody therapy in vivo. In this experiment nude mice weighing 18-22 grams were implanted subcutaneously with 30 mg A431 tumor fragments in the region of the right axilla on Day 0. Tumors were allowed to grow to a mass of 100 to 150 mg, at which time the tumor bearing animals were randomized and distributed into treatment cages. […] The isethionate salts can be prepared by titrating the compounds into solution with 2 equivalents of isethionic acid. Treatment was based on average group weight. The control animals received water. Evaluation of the experiment was based on tumor growth delay, T-C, defined as the difference, in days, for the treated and control tumors to reach an evaluation size of 750 mg. Data can also be represented as the percentage of tumor growth inhibition, defined as the tumor growth delay divided by the number of treatments times 100%. […] Statistical analysis was performed using JMP for Macintosh (SAS Institute, Inc., Cary, N.C. ).

Each structure is given as a SMILES string. Like-named read-outs stand apart in the source and are kept apart here.

With `C=CC(=O)Nc1cc2c(Nc3ccc(F)c(Cl)c3)ncnc2cc1OCCCN1CCOCC1` [compound 1, N-[4-(3-chloro-4-fluoro-phenylamino)-7-(3-morpholin-4-yl-propoxy)-quinazolin-6-yl]-acrylamide], the half-inhibitory concentration (IC50) in test [1] turned out to be 9 nM. For the same compound, the VEGF secretion in test [2] (10 ng/mL EGF stimulated, 0.1 μM compound) was 1490 ± 170 pg/10^5 cells ± SE; in test [2] (10 ng/mL EGF stimulated, 0.5 μM compound), 560 ± 29 pg/10^5 cells ± SE; in test [2] (TGF-alpha stimulated, 0.1 μM compound), 1976 ± 37 pg/10^5 cells ± SE; in test [2] (TGF-alpha stimulated, 0.5 μM compound), 766 ± 75 pg/10^5 cells ± SE; in test [2] (serum free media (basal), 0.1 μM compound) it was 280 ± 41 pg/10^5 cells ± SE; in test [2] (serum free media (basal), 0.5 μM compound), 250 ± 46 pg/10^5 cells ± SE. Also, the “effect on EGF- or TGF-alpha stimulated VEGF secretion” value in test [2] (0.5 μM, in words) is listed as “blocked”. In addition, in test [2] (basal, in words), the “effect on the basal level of VEGF secretion from A431 cells” value is given as “appeared to inhibit”. Moreover, the results for the “Tumor Growth Delay” value in test [3] (5 mg/kg perorally) and in test [3] (18 mg/kg perorally) were 53.2 days and 41.3 days, respectively. In addition, the “Tumor Growth Inhibition” value in test [3] (5 mg/kg perorally) is 355%; in test [3] (18 mg/kg perorally), 275%. In addition, the “antitumor response T-C” value in test [3] (A431 tumors in vivo, dose not given) was 53 days.
